Measured values from patent EP0533925A1, “OPTICAL ISOMER OF R-FORM OF DIPHENYL ETHER DERIVATIVE AND HERBICIDE CONTAINING THE SAME AS ACTIVE INGREDIENT” (TEIJIN LIMITED, priority 1990, dated 1991).
Where a name gives a salt, the structure may show the parent alone.

Experiments:
Experiment in all cases: Herbicidal activity, spray of diphenyl ether with N-phosphonomethylglycine derivative (Test Examples 6 to 10)
Format in all cases: in vivo
Set-up in all cases: key: 0 means the state where the plants are as sound as before the application of the active compound; 1, 2, 3 and 4 mean varying degrees of the enfeebled state of the plants between 0 and 5; 1, 2, 3 and 4 mean varying degrees of the enfeebled state of the plants between 0 and 5; 1, 2, 3 and 4 mean varying degrees of the enfeebled state of the plants between 0 and 5; 1, 2, 3 and 4 mean varying degrees of the enfeebled state of the plants between 0 and 5; 5 is the state where the plants are withered or killed by application of the active compound
Conditions in all cases: Application 0.375 Kg/ha (117) alone
Abutilon theophrosti = test system: Abutilon theophrosti
Method: (§1) In these examples, all parts means parts by weight, unless otherwise noted. The herbicidal activity was evaluated on a scale of 6 degrees. In other words, 0 means the state where the plants are as sound as before the application of the active compound, while 5 is the state where the plants are withered or killed by application of the active compound, and 1, 2, 3 and 4 mean varying degrees of the enfeebled state of the plants between 0 and 5.
(§2) In each run, the diphenyl ether derivatives and the N-phosphonomethylglycine derivatives shown in Table 3 (in the indicated mixing ratios) was dissolved in 16 parts by volume of a mixture of water and acetone (1 : 1 by volume; containing 0.05 % of a nonionic surfactant, Sorpol-2680) in the indicated mixing ratio, respectively, to prepare spray solutions.
(§3) The plants tested were grown in vinyl resin pots (diameter 10 cm) filled with soil in a green house for 2 to 3 weeks after germination from seeds or tubers.
(§4) The spray solution was applied to the plants so that the total volume sprayed became 4 cc/100 cm², and the herbicidal activity was examined.
(§5) The alphabetical symbols in Tables 2 and 3 represent the following plants, respectively: a: Digitaria adscendens b: Setaria viridis c: Sorghum halepense d: Chenopodium album var. centrorubrum e: Amaranthus mangostanus f: Astragalus sinicus g: Abutilon theophrosti h: Solanum nigrum i: Xanthium strumarium j: Soybean; Glycine max k: Corn; Zea mays Table 2

Amaranthus mangostanus = test system: Amaranthus mangostanus
Method: as §1, §2, §3, §4, §5

[1] = test system: Chenopodium album var. centrorubrum
Method: as §1, §2, §3, §4, §5

Corn; Zea mays = test system: Corn; Zea mays
Method: as §1, §2, §3, §4, §5

Digitaria adscendens = test system: Digitaria adscendens
Method: as §1, §2, §3, §4, §5

Solanum nigrum = test system: Solanum nigrum
Method: as §1, §2, §3, §4, §5

Soybean; Glycine max = test system: Soybean; Glycine max
Method: as §1, §2, §3, §4, §5

In the case of O=C(O)CNCP(=O)(O)O [Compound (117), N-phosphonomethylglycine isopropylammonium salt], the “herbicidal activity, Plants g” value (Abutilon theophrosti; 3 days after treatment) is reported as 0, the “herbicidal activity, Plants g” value (Abutilon theophrosti; 7 days after treatment) is reported as 1 and the “herbicidal activity, Plants g” value (Abutilon theophrosti; 14 days after treatment) is reported as 1. The “herbicidal activity, Plants e” value (Amaranthus mangostanus; 3 days after treatment) was 0, the “herbicidal activity, Plants e” value (Amaranthus mangostanus; 7 days after treatment) was 0 and the “herbicidal activity, Plants e” value (Amaranthus mangostanus; 14 days after treatment) was 0. The “herbicidal activity, Plants d” value ([1]; 3 days after treatment) was 0, the “herbicidal activity, Plants d” value ([1]; 7 days after treatment) was 0 and the “herbicidal activity, Plants d” value ([1]; 14 days after treatment) was 1. The “herbicidal activity, Plants k” value (Corn; Zea mays; 3 days after treatment) was 0, the “herbicidal activity, Plants k” value (Corn; Zea mays; 7 days after treatment) was 0 and the “herbicidal activity, Plants k” value (Corn; Zea mays; 14 days after treatment) was 0. For the same compound, the “herbicidal activity, Plants a” value (Digitaria adscendens; 3 days after treatment) was 3, the “herbicidal activity, Plants a” value (Digitaria adscendens; 7 days after treatment) was 1 and the “herbicidal activity, Plants a” value (Digitaria adscendens; 14 days after treatment) was 3. For the same compound, the “herbicidal activity, Plants h” value (Solanum nigrum; 3 days after treatment) was 0, the “herbicidal activity, Plants h” value (Solanum nigrum; 7 days after treatment) was 0 and the “herbicidal activity, Plants h” value (Solanum nigrum; 14 days after treatment) was 0. For the same compound, the “herbicidal activity, Plants j” value (Soybean; Glycine max; 3 days after treatment) was 0, the “herbicidal activity, Plants j” value (Soybean; Glycine max; 7 days after treatment) was 0 and the “herbicidal activity, Plants j” value (Soybean; Glycine max; 14 days after treatment) was 0.
